Here are results for one molecule from ChEMBL document CHEMBL3046703, “Study of mangiferin-receptor affinity by cell membrane chromatography using rat pancreas” (Med Chem Res, 2012).

Usually Kd stands for a measure of binding affinity in units of concentration. A high value points to lower affinity.

Activity calls are given as the source filed them. The calls are words filed in the database; no cut-off is given here.

Type in all cases: cell membranes
The species entered for experiment [1] is Rattus norvegicus. Briefly: Binding affinity to mangiferin receptor in rat islet cell membrane stationary phase assessed as ligand-membrane complex by infrared spectroscopic analysis.
Experiment [2] is filed under the species Rattus norvegicus. Briefly: Binding affinity to mangiferin receptor in rat islet cell membrane stationary phase assessed as total active binding sites per islet bed by chromatographic analysis.
Experiment [3] is described as follows: Binding affinity to mangiferin receptor in rat islet cell membrane stationary phase by chromatographic analysis.

Take `O=c1c2cc(O)c(O)cc2oc2cc(O)c([C@@H]3O[C@H](CO)[C@@H](O)[C@H](O)[C@H]3O)c(O)c12` [MANGIFERIN]: the outcome in the experiment listed under Rattus norvegicus [1] was Active. Besides, the Activity in the experiment listed under Rattus norvegicus [2] was 22.7 µmol. Also, the Kd in experiment [3] is 400 nM.
